What was measured:
Type in all cases: cell-based
[1] = tested on: attachment of MDA-MB-231 carcinoma cells to human LECs; test: In vitro human LECs attachment assay (CCL2), MDA-MB-231; settings: 18 hrs.-stimulation of 10 ng/mL CCL2 vs negative control with DMEM/F12; p<0.01
Experimental: The human LECs were plated to form a monolayer on type I collagen-coated 35 mm plates and incubated to confluence in 5% O2, 5% CO2, and 90% N2 at 37° C. The LECs were kept in serum-starved medium containing EBM-2 with 3% FBS. Selected plates were treated with 10 ng/mL CCL2 for 18 hrs. In some experiments, the plates were stimulated by the serum-starved medium pretreated with neutralization of 10 ng/mL CCL2 with 1.0 μg/mL CCL2 specific antibody.
In some experiments, the plates were also treated with anti-human ICAM-1 antibody (available from R&D systems, US) for 30 min. after the 18 hrs. treatment with 10 ng/mL CCL2.
The two kinds of the breast carcinoma cells such as MDA-MB-231 and MCF-7 stained with PKH26 fluorescent dye (available from SIGMA, US) were then plated at 1×10^5 cells per plate and incubated for 30 min. at 37° C. Unbound cells were removed by aspiration, and the plates were washed with EBM-2 three times. The attachment of the carcinoma cells was quantified by counting the number of cells under ×100 magnification using a Leica microscope.

[2] = tested on: ICAM-1 protein in human LECs; test: Western blot analysis of ICAM-1 protein in human LECs; settings: 18 hrs.-stimulation of 10 ng/mL CCL2
Experimental: Western blot analysis was performed to quantitatively evaluate the CCL2-mediated ICAM-1 expression on the cultured human LECs. The cells were dissolved in M-PER (Mammalian Protein Extraction Reagent available from Thermo Fisher Scientific Inc., US) and centrifuged at 14,000 r.p.m. for 10 min. A 15 μg sample of the total cell lysate was resolved in SDS sample buffer for sodium dodecyl sulfate-polyacrylamide gel electrophoresis (SDS-PAGE) and transferred to an polyvinylidene difluoride (PVDF) membrane (available from Atto Corporation, Japan), where it was incubated for 45 min The membrane was probed with the anti-ICAM-1 antiserum (dilution 1:1000, available from Cell Signaling Technology Inc., US) and then incubated with anti-rabbit immunoglobulin G (IgG) horseradish peroxidase conjugated antibody. The same membrane was reprobed with monoclonal anti-actin antibody (available from Santa Cruz Biotechnology Inc., US) and then visualized with an ECL-Western blotting detection system (available from Amersham Bioscience Inc., UK).

[3] = tested on: ICAM-1 mRNA in human LECs; test: Quantitative RT-PCR of ICAM-1 mRNA in human LECs
Experimental: The 0 hr., 1 hr., 4 hrs. and 18 hrs. expressions of ICAM-1 mRNA were evaluated by quantitative reverse transcription polymerase chain reaction (RT-PCR) for ICAM-1 cDNA. The total RNA was extracted from the cultured human LECs using ISOGEN reagent (available from Nippon Gene Co., Ltd., Japan) according to the manufacturer's instructions. The concentration of each RNA was calculated using 260 nm absorbance with a spectrophotometer. The extracted RNA was reverse-transcribed with M-MLV reverse transcriptase (available from Ambion Inc., US). For RT-PCR analysis, each superscript first-strand synthesis kit (available from Invitrogen Corporation, US) was used with 1.0 μg of the total RNA. Forward and reverse primers of ICAM-1 and cyclophilin A were used for each specific probe, respectively as follows; ICAM-1 (available from TAKARA BIO INC., Japan), and cyclophilin A:
The cDNA was diluted 5-fold prior to PCR amplification. Quantitative RT-PCR was performed using a LIGHT CYCLER rapid thermal cycler system (available from Roche Diagnostics Limited, UK). Reactions were performed in a 20 μL volume with 0.5 μM primers, TAQ DNA POLYMERASE, and the buffer was included in the SYBR PREMIX EX TAQ (available from TAKARA BIO INC., Japan; SYBR is a registered trademark). The PCR protocol included 10 secs. of denaturation step followed by 45 cycles of 95° C. denaturation for 5 secs. and 60° C. annealing for 20 secs. The fluorescent product was detected at the end of the 72° C. extension period. Negative controls included PCR reactions with cDNA omitted. To confirm amplification specificity, PCR products from each primer pair were subjected to melting curve analysis. Quantification data was analyzed with LIGHT CYCLER analysis software. The results are presented as normalized ratio of the expression of ICAM-1 mRNA to cyclophilin A.

CCL2: chemokine CCL2
in vitro attachment of MDA-MB-231 to human LECs [1]: significant increase | expression of ICAM-1 protein [2]: significant expression | expression of ICAM-1 mRNA (ratio to cyclophilin A) ([3]; 10 ng/mL CCL2, 1 hr. after the stimulation): significantly increased | expression of ICAM-1 mRNA (ratio to cyclophilin A) ([3]; 10 ng/mL CCL2, around 4 hrs. after the stimulation): maximal level | expression of ICAM-1 mRNA (ratio to cyclophilin A) ([3]; 10 ng/mL CCL2, up to 18 hrs. after the stimulation): increased slightly
